Measurements published in ChEMBL document CHEMBL4138197, “Design, synthesis and pharmacological evaluation of N-(5-chloro-2,4-dihydroxybenzoyl)-(R)-N-arylmethyl-1,2,3,4-tetrahydro-3-isoquinolinecarboxamides as potent Hsp90 inhibitors” (Eur J Med Chem, 2018).

What was measured:
[1] = test system: MDA-MB-231; test: Antiproliferative activity against human MDA-MB-231 cells after 72 hrs by SRB assay; assay type: functional, cell-based; conditions: MDA-MB-231, 72 h
[2] = test system: A549; test: Antiproliferative activity against human A549 cells after 72 hrs by SRB assay; assay type: functional, cell-based; conditions: A549, 72 h

| SMILES | IC50 [1] [nM] | IC50 [2] [nM] |
| --- | --- | --- |
| O=C(NCc1ccc(OC(F)(F)F)cc1)[C@H]1Cc2ccccc2CN1C(=O)c1cc(Cl)c(O)cc1O | 2260 | 2160 |
| O=C(NCc1ccco1)[C@H]1Cc2ccccc2CN1C(=O)c1cc(Cl)c(O)cc1O | 500 | 890 |
| CS(=O)(=O)c1ccc(CNC(=O)[C@H]2Cc3ccccc3CN2C(=O)c2cc(Cl)c(O)cc2O)cc1 | 950 | 2660 |
| COc1ccccc1CNC(=O)[C@H]1Cc2ccccc2CN1C(=O)c1cc(Cl)c(O)cc1O | 950 | 1160 |
| O=C(NCc1ccc(Cl)cc1Cl)[C@H]1Cc2ccccc2CN1C(=O)c1cc(Cl)c(O)cc1O | 950 | 650 |
| Cc1cccc(CNC(=O)[C@H]2Cc3ccccc3CN2C(=O)c2cc(Cl)c(O)cc2O)c1 | 1760 | 960 |
| O=C(NCc1ccccc1Cl)[C@H]1Cc2ccccc2CN1C(=O)c1cc(Cl)c(O)cc1O | 1710 | 1460 |
| CN(C)c1ccc(CNC(=O)[C@H]2Cc3ccccc3CN2C(=O)c2cc(Cl)c(O)cc2O)cc1 | 400 | 450 |
| Cc1ccc(CNC(=O)[C@H]2Cc3ccccc3CN2C(=O)c2cc(Cl)c(O)cc2O)cc1 | 600 | 530 |
| O=C(NCc1cccc(Cl)c1)[C@H]1Cc2ccccc2CN1C(=O)c1cc(Cl)c(O)cc1O | 1960 | 1810 |
| Cc1ccccc1CNC(=O)[C@H]1Cc2ccccc2CN1C(=O)c1cc(Cl)c(O)cc1O | 1460 | 650 |
| COc1ccc(CNC(=O)[C@H]2Cc3ccccc3CN2C(=O)c2cc(Cl)c(O)cc2O)c(OC)c1 | 1160 | 1410 |
| O=C(NCc1cccnc1)[C@H]1Cc2ccccc2CN1C(=O)c1cc(Cl)c(O)cc1O | 820 | 1510 |
| NS(=O)(=O)c1ccc(CNC(=O)[C@H]2Cc3ccccc3CN2C(=O)c2cc(Cl)c(O)cc2O)cc1 | > 10000 | > 10000 |
| N#Cc1ccc(CNC(=O)[C@H]2Cc3ccccc3CN2C(=O)c2cc(Cl)c(O)cc2O)nc1 | 530 | 620 |
| COc1cc(CNC(=O)[C@H]2Cc3ccccc3CN2C(=O)c2cc(Cl)c(O)cc2O)cc(OC)c1OC | 2210 | 2660 |
| O=C(NCc1cccc(Cl)c1Cl)[C@H]1Cc2ccccc2CN1C(=O)c1cc(Cl)c(O)cc1O | 2110 | 1110 |
| O=C(NCc1ccccc1)[C@H]1Cc2ccccc2CN1C(=O)c1cc(Cl)c(O)cc1O | 1120 | 1670 |

| SMILES | IC50 [1] [nM] | IC50 [2] [nM] |
| --- | --- | --- |
| O=C(NCc1cccc2ccccc12)[C@H]1Cc2ccccc2CN1C(=O)c1cc(Cl)c(O)cc1O | 2410 | 2760 |
| COc1cc(CNC(=O)[C@H]2Cc3ccccc3CN2C(=O)c2cc(Cl)c(O)cc2O)ccc1O | 2160 | 2610 |
| O=C(NCc1ccccn1)[C@H]1Cc2ccccc2CN1C(=O)c1cc(Cl)c(O)cc1O | 630 | 890 |
| O=C(NCc1ccc2c(c1)OCO2)[C@H]1Cc2ccccc2CN1C(=O)c1cc(Cl)c(O)cc1O | 700 | 650 |
| O=C(NCc1ccc(Cl)c(Cl)c1)[C@H]1Cc2ccccc2CN1C(=O)c1cc(Cl)c(O)cc1O | 1610 | 1460 |
| O=C(NCc1ccc([N+](=O)[O-])cc1)[C@H]1Cc2ccccc2CN1C(=O)c1cc(Cl)c(O)cc1O | 400 | 540 |
| COc1ccc(CNC(=O)[C@H]2Cc3ccccc3CN2C(=O)c2cc(Cl)c(O)cc2O)cc1 | 900 | 1060 |
| COC1=C2C[C@@H](C)C[C@H](OC)[C@H](O)[C@@H](C)/C=C(\C)[C@H](OC(N)=O)[C@@H](OC)/C=C\C=C(/C)C(=O)NC(=CC1=O)C2=O [GELDANAMYCIN] | 60 | 100 |
| CS(=O)(=O)c1cccc(CNC(=O)[C@H]2Cc3ccccc3CN2C(=O)c2cc(Cl)c(O)cc2O)c1 | 3870 | > 10000 |
| N#Cc1ccc(CNC(=O)[C@H]2Cc3ccccc3CN2C(=O)c2cc(Cl)c(O)cc2O)cc1 | 350 | 350 |
| COc1cccc(CNC(=O)[C@H]2Cc3ccccc3CN2C(=O)c2cc(Cl)c(O)cc2O)c1 | 1810 | 1560 |
| O=C(NCc1ccc2c(c1)CCO2)[C@H]1Cc2ccccc2CN1C(=O)c1cc(Cl)c(O)cc1O | 900 | 1060 |
| N#Cc1cccc(CNC(=O)[C@H]2Cc3ccccc3CN2C(=O)c2cc(Cl)c(O)cc2O)c1 | 650 | 500 |
| N#Cc1ccc(CNC(=O)[C@H]2Cc3ccccc3CN2C(=O)c2cc(Cl)c(O)cc2O)cn1 | 2080 | 2730 |
| O=C(NCc1cccc([N+](=O)[O-])c1)[C@H]1Cc2ccccc2CN1C(=O)c1cc(Cl)c(O)cc1O | 800 | 650 |
| COc1ccc(CNC(=O)[C@H]2Cc3ccccc3CN2C(=O)c2cc(Cl)c(O)cc2O)cc1OC | 1660 | 1710 |
| O=C(NCc1ccc(Cl)cc1)[C@H]1Cc2ccccc2CN1C(=O)c1cc(Cl)c(O)cc1O | 780 | 750 |
